Reference: patent US8338414B2, “Immunosuppressive agent and anti-tumor agent comprising heterocyclic compound as active ingredient” (Zenyaku Kogyo KabushikiKaisha, priority 2005, dated 2012)
Where two headings read alike, the source gives them in different places.

Assays:
WiDr colon cancer cells = assay: Proliferation inhibitory activity on solid tumor cells, WiDr; format: cell-based; details: Homo sapiens, 72 hours
Method: (§1) Used in the test were MCF-7 cells which were established from human breast cancer and were cultured routinely under the conditions of 37° C. and 5% CO2, in MEM medium supplemented with 10% fetal calf serum, 25 mM of HEPES and 0.1 mg/ml kanamycin. The MCF-7 cells in a logarithmic growth phase were treated with trypsin/EDTA to prepare single cell suspension adjusted to 4.0×10^4 cells/ml in MEM medium (supplemented with 10% fetal calf serum, 25 mM of HEPES and 0.1 mg/ml kanamycin). Test compounds were dissolved in DMSO and diluted with RPMI 1640 medium (supplemented with 10% fetal calf serum, 25 mM of HEPES and 0.1 mg/ml kanamycin) to a concentration of […] to 2.0×10^−9M.
(§2) The cell suspension was filled in a 96-wells microplate at a rate of 0.1 ml per well and was cultured for 24 hours so as to make the cells to adhere to the microplate. Then, it was added with 0.1 ml of the sample solution and cultured at 37° C. for 72 hours in 5% CO2.
(§3) 50% Growth inhibition concentrations (GI50 μM) were calculated from growth inhibitions at various sample concentrations.
(§4) In the foregoing, when the cells other than MCF-7 are used, instead of adding 10% fetal bovine serum, the following media were used, and the following single cell suspensions were prepared. • PC-3 prostate cancer cells: 10% fetal bovine serum in F12K medium, single cell suspension of 2×10^4 cells; • A549 lung cancer cells: 10% fetal bovine serum in DMEM medium, single cell suspension of 1.5×10^4 cells; • WiDr colon cancer cells: 10% fetal bovine serum in MEM medium, single cell suspension of 3×10^4 cells; • B16F10 melanoma cells: 10% fetal bovine serum in RPMI 1640 medium, single cell suspension of 1×10^4 cells;

B16F10 melanoma cells = assay: Proliferation inhibitory activity on solid tumor cells, B16F10; format: cell-based; details: Mus musculus, B16-F10; 72 hours
Method: as §1, §2, §3, §4

A549 lung cancer cells = assay: Proliferation inhibitory activity on solid tumor cells, A549; format: cell-based; details: Homo sapiens, 72 hours
Method: as §1, §2, §3, §4

MCF-7 cells = assay: Proliferation inhibitory activity on solid tumor cells, MCF-7; format: cell-based; details: Homo sapiens, MCF7; 72 hours
Method: as §1, §2, §3

[1] = system: PC-3 prostate cancer cells; assay: Proliferation inhibitory activity on solid tumor cells, PC-3; format: cell-based; details: 72 hours
Method: as §1, §2, §3, §4

Daudi cells = assay: Proliferation inhibitory activity on hematologic neoplasm cells, Daudi; format: cell-based; details: Homo sapiens, Daudi, 72 h; 3 days, Alamar Blue
Method: (§5) Daudi cells (5×10^5 cells/mL), Jurkat cells (5×10^5 cells/mL), THP-1 cells (5×10^5 cells/mL), U 937 cells (5×10^5 cells/mL), and HL 60 cells (5×10^5 cells/mL) suspended in RPMI 1640 medium (containing 10% fetal bovine serum, 10 mM HEPES, 1 mM pyruvic acid, 4.5 g/L glucose, 100 units/mL penicillin, and 0.1 mg/mL streptomycin) were seeded in 96 well plates at a capacity of 0.135 mL per well. Serial dilutions of test substances were added to respective wells at 15 μL/well, and incubated under conditions of carbon dioxide 5% at 37° C. for 3 days. Thereafter, Alamar Blue solution was added at 50 μL, and after incubation for one day, the fluorescence intensity at 590 nm using an excitation wavelength of 530 nm was determined by Cytoflour 4000 (Applied Biosystems).

mouse spleen cells = assay: Proliferation inhibition assay for mouse spleen cells; format: cell-based; details: 72 h, 3 days, Alamar Blue
Method: Spleen cells (2×10^6 cells/mL) prepared from C57BL/6N female mice (8 weeks old, purchased from Charles River Laboratories Japan Inc.) were suspended in RPMI 1640 medium (containing 10% fetal bovine serum, 10 mM HEPES, 1 mM pyruvic acid, 4.5 g/L glucose, 100 units/mL penicillin, and 0.1 mg/mL streptomycin), and seeded in wells of a 96 well plate at 0.225 mL per well. Serial dilutions of test substances were added to respective wells, and then concanavalin A (Con A, 3 μg/mL), lipopolysaccharide (LPS, 100 μg/mL), or an anti-mouse IgM antibody (100 μg/mL) were added. Thereafter, they were incubated under conditions of carbon dioxide 5% at a temperature 37° C. for 3 days. Next, Alamar Blue solution was added at 50 μL per 150 μL, and after having cultured for one day, the fluorescence intensity at 590 nm using an excitation wavelength of 530 nm was determined by Cytoflour 4000 (Applied Biosystems).

THP-1 cells = assay: Proliferation inhibitory activity on hematologic neoplasm cells, THP-1; format: cell-based; details: Homo sapiens, THP-1, 72 h; 3 days, Alamar Blue
Method: as §5

Jurkat cells = assay: Proliferation inhibitory activity on hematologic neoplasm cells, Jurkat; format: cell-based; details: Homo sapiens, Jurkat, 72 h; 3 days, Alamar Blue
Method: as §5

[2] = system: Rabbit synoviocytes HIG-82; assay: Inhibition assay for proliferation of rabbit synoviocyte; format: cell-based; details: Oryctolagus cuniculus, 72 h; HIG-82, 3 days, Alamar Blue
Method: Rabbit synoviocytes HIG-82 suspended in HAM medium (containing 10% fetal bovine serum, 25 mM HEPES, and 0.1 mg/mL kanamycin) (with 4×10^4 cells/mL) were seeded in wells of a 96 well plate at 0.135 mL per well. Then, 15 μL of each of serial dilutions of test substances was added to a respective well, and incubated under conditions of carbon dioxide 5% at a temperature 37° C. Alamar Blue solution was added at 50 μL per well on day 0 and day 3, and incubated for one day, and thereafter fluorescence intensity at 590 nm using an excitation wavelength of 530 nm was determined by Cytoflour 4000 (Applied Biosystems).

[3] = LPS 100 μg/mL, read-out: Inhibition of LPS response
[4] = concanavalin A 3 μg/mL, read-out: Inhibition of Con A response

| Structure (SMILES) | melting point | GI50 (WiDr colon cancer cells) | GI50 (B16F10 melanoma cells) | GI50 (A549 lung cancer cells) | GI50 (MCF-7 cells) | GI50 [1] | IC50 (Daudi cells) | IC50 (THP-1 cells) | IC50 (Jurkat cells) | IC50 (mouse spleen cells; [3]) | IC50 (mouse spleen cells; [4]) | IC50 [2] |
| --- | --- | --- | --- | --- | --- | --- | --- | --- | --- | --- | --- | --- |
| COCC(=O)N1CCN(c2nc(N3CCOCC3)nc(-n3c(C(F)F)nc4ccccc43)n2)CC1 [Compound 33, 2-(2-Difluoromethylbenzimidazol-1-yl)-4-(4-methoxylacetylpiperazin-1-yl)-6-morpholino-1,3,5-triazine] | 72 to 75 °C | 1460 nM | 2910 nM | 1050 nM | < 40 nM | 510 nM |  |  |  |  |  |  |
| CN(C)C(=O)N1CCN(c2nc(N3CCOCC3)nc(-n3c(C(F)F)nc4ccccc43)n2)CC1 [Compound 32, 2-(2-Difluoromethylbenzimidazol-1-yl)-4-[4-(N,N-dimethylcarbamoyl)piperazin-1-yl]-6-morpholino-1,3,5-triazine] | 203 to 205 °C | 1330 nM | 2140 nM | 830 nM | < 40 nM | 380 nM |  |  |  |  |  |  |
| CC(=O)CN1CCN(c2nc(N3CCOCC3)nc(-n3c(C(F)F)nc4ccccc43)n2)CC1 [Compound 30, 4-(4-Acetonylpiperazin-1-yl)-2-(2-difluoromethylbenzimidazol-1-yl)-6-morpholino-1,3,5-triazine] | 79 to 81 °C | 3740 nM | 3320 nM | 1520 nM | 410 nM | 770 nM |  |  |  |  |  |  |
| O=C1CCN(c2nc(N3CCOCC3)nc(-n3c(C(F)F)nc4ccccc43)n2)CCN1 [Compound 25, 2-(2-Difluoromethylbenzimidazol-1-yl)-4-morpholino-6-(5-oxo-1,4-diazepan-1-yl)-1,3,5-triazine] | 235 to 237 °C | 920 nM | 3210 nM | 990 nM | 980 nM | 270 nM | 190 nM | 379 nM | 1590 nM | 100 to 10000 nM | 1 to 100 nM | 990 nM |
| OCCN1CCN(c2nc(N3CCOCC3)nc(-n3c(C(F)F)nc4ccccc43)n2)CC1 [Compound 27, 2-(2-Difluoromethylbenzimidazol-1-yl)-4-[4-(2-hydroxyethyl)piperazin-1-yl]-6-morpholino-1,3,5-triazine] | 174 to 177 °C | 1320 nM | 4630 nM | 1120 nM | 1140 nM | 310 nM | 324 nM | 730 nM | 3600 nM | 100 to 10000 nM | ≤ 1 nM | 1560 nM |
| OCCCN1CCN(c2nc(N3CCOCC3)nc(-n3c(C(F)F)nc4ccccc43)n2)CC1 [Compound 34, 2-(2-Difluoromethylbenzimidazol-1-yl)-4-[4-(3-hydroxypropyl)piperazin-1-yl]-6-morpholino-1,3,5-triazine] |  | 2070 nM | 2910 nM | 1380 nM | 140 nM | 550 nM |  |  |  |  |  |  |

Further lines, with some results ahead:

| melting point | GI50 (WiDr colon cancer cells) | GI50 (B16F10 melanoma cells) | GI50 (A549 lung cancer cells) | GI50 (MCF-7 cells) | GI50 [1] | IC50 (Daudi cells) | IC50 (THP-1 cells) | IC50 (Jurkat cells) | Structure (SMILES) | IC50 (mouse spleen cells; [3]) | IC50 (mouse spleen cells; [4]) | IC50 [2] |
| --- | --- | --- | --- | --- | --- | --- | --- | --- | --- | --- | --- | --- |
| 220 to 222 °C | 1430 nM | 1510 nM | 650 nM | 50 nM | 320 nM |  |  |  | O=C(c1ccco1)N1CCN(c2nc(N3CCOCC3)nc(-n3c(C(F)F)nc4ccccc43)n2)CC1 [Compound 31, 2-(2-Difluoromethylbenzimidazol-1-yl)-4-[4-(2-furoyl)piperazin-1-yl]-6-morpholino-1,3,5-triazine] |  |  |  |
| 178 to 181 °C | 2580 nM | 3930 nM | 1320 nM | 700 nM | 320 nM |  |  |  | O=C(Cc1ccccc1)N1CCN(c2nc(N3CCOCC3)nc(-n3c(C(F)F)nc4ccccc43)n2)CC1 [Compound 29, 2-(2-Difluoromethylbenzimidazol-1-yl)-4-(4-benzylcarbonylpiperazin-1-yl)-6-morpholino-1,3,5-triazine] |  |  |  |
| 198 to 202 °C | 2100 nM | 2840 nM | 1220 nM | 100 nM | 730 nM |  |  |  | CCC(=O)N1CCN(c2nc(N3CCOCC3)nc(-n3c(C(F)F)nc4ccccc43)n2)CC1 [Compound 35, 2-(2-Difluoromethylbenzimidazol-1-yl)-4-morpholino-6-(4-propionylpiperazin-1-yl)-1,3,5-triazine] |  |  |  |
